{"source": "patent US20100216751A1", "about": "(priority 2007, published 2010)", "experiment": "Pharmacokinetic evaluation of liquid bevirimat dosage forms, oral gavage, male Cynomolgus monkeys", "details": "male, cynomolgus monkey, in vivo, po; for AUC / Cmax / half-life / Tmax: 200 mg", "protocol": "Six male Cynomolgus monkeys having an initial body weight of about 3.5 to about 4.5 kg are allowed 7 days to acclimate to their individual housing units. Monkeys are supplied with water and a commercial diet ad libitum prior to the study initiation. Food is withheld from the monkeys for a minimum of twelve hours before the study and during the study until four hours postdose when food is returned. Water is supplied ad libitum.\nTest formulations are administered to the monkeys at time 0 on appropriate days. Test formulations will be dosed orally via oral gavage or intravenously.\nSamples are drawn at the frequencies indicated below. Each blood sample (0.5 mL) is collected from the monkey's saphenous vein via a butterfly catheter and placed into a chilled polypropylene tube containing sodium heparin as the anticoagulant. Blood samples are centrifuged at a temperature of 4° C. at a speed of 3,000 rpm for 15 minutes. All samples are maintained chilled throughout processing. Plasma is collected after centrifugation, pipetted into a 2-mL polypropylene microtube, and frozen on dry-ice pending analytical evaluation.", "key": {"[1]": {"details": "50 mg/monkey, Plasma Concentration, PG/glycerin/Vitamin ETPGS/Tween80/Plasdone C15 formulation, AVG"}, "[2]": {"details": "50 mg/monkey, Plasma Concentration, PG/glycerin/Vitamin ETPGS/Tween80/Plasdone C15 formulation, individual monkey"}, "[3]": {"details": "50 mg/monkey, Plasma Concentration, PG/glycerin/Vitamin ETPGS/ethanol formulation, AVG"}, "[4]": {"details": "50 mg/monkey, Plasma Concentration, PG/glycerin/Vitamin ETPGS/ethanol formulation, individual monkey"}, "[5]": {"details": "200 mg/monkey, Plasma Concentration, PG/glycerin/Vitamin ETPGS/ethanol formulation, AVG"}, "[6]": {"details": "200 mg/monkey, Plasma Concentration, PG/glycerin/Vitamin ETPGS/ethanol formulation, individual monkey"}}}
{"molecule": "C=C(C)[C@@H]1CC[C@]2(C(=O)O)CC[C@]3(C)[C@H](CC[C@@H]4[C@@]5(C)CC[C@H](OC(=O)CC(C)(C)C(=O)O)C(C)(C)[C@@H]5CC[C@]43C)[C@@H]12", "note": "[Bevirimat, 3-O-(3′,3′-dimethylsuccinyl)betulinic acid]", "values": [{"measurement": "concentration at 1 h", "setting": "50 mg/monkey, Plasma Concentration, PG/glycerin/Vitamin ETPGS/Tween80/Plasdone C15 formulation, 1.0 hr, AVG", "value": 24800, "unit": "ng/mL"}, {"measurement": "concentration at 2 h", "setting": "[1]", "value": 61600, "unit": "ng/mL"}, {"measurement": "concentration at 2 h", "setting": "[2]", "value": 52700, "unit": "ng/mL"}, {"measurement": "concentration at 4 h", "setting": "[1]", "value": 53600, "unit": "ng/mL"}, {"measurement": "concentration at 4 h", "setting": "[2]", "value": 55100, "unit": "ng/mL"}, {"measurement": "concentration at 6 h", "setting": "[1]", "value": 32300, "unit": "ng/mL"}, {"measurement": "concentration at 6 h", "setting": "[2]", "value": 31500, "unit": "ng/mL"}, {"measurement": "concentration at 8 h", "setting": "50 mg/monkey, Plasma Concentration, PG/glycerin/Vitamin ETPGS/Tween80/Plasdone C15 formulation, 8.0 hr, AVG", "value": 21000, "unit": "ng/mL"}, {"measurement": "concentration at 8 h", "setting": "50 mg/monkey, Plasma Concentration, PG/glycerin/Vitamin ETPGS/Tween80/Plasdone C15 formulation, 8.0 hr, individual monkey", "value": 22300, "unit": "ng/mL"}, {"measurement": "concentration at 12 h", "setting": "50 mg/monkey, Plasma Concentration, PG/glycerin/Vitamin ETPGS/Tween80/Plasdone C15 formulation, 12 hr, AVG", "value": 8160, "unit": "ng/mL"}, {"measurement": "concentration at 12 h", "setting": "50 mg/monkey, Plasma Concentration, PG/glycerin/Vitamin ETPGS/Tween80/Plasdone C15 formulation, 12 hr, individual monkey", "value": 8580, "unit": "ng/mL"}, {"measurement": "concentration at 24 h", "setting": "50 mg/monkey, Plasma Concentration, PG/glycerin/Vitamin ETPGS/Tween80/Plasdone C15 formulation, 24 hr, AVG", "value": 1270, "unit": "ng/mL"}, {"measurement": "concentration at 24 h", "setting": "50 mg/monkey, Plasma Concentration, PG/glycerin/Vitamin ETPGS/Tween80/Plasdone C15 formulation, 24 hr, individual monkey", "value": 1320, "unit": "ng/mL"}, {"measurement": "concentration at 48 h", "setting": "50 mg/monkey, Plasma Concentration, PG/glycerin/Vitamin ETPGS/Tween80/Plasdone C15 formulation, 48 hr, AVG", "value": 336, "unit": "ng/mL"}, {"measurement": "concentration at 72 h", "setting": "50 mg/monkey, Plasma Concentration, PG/glycerin/Vitamin ETPGS/Tween80/Plasdone C15 formulation, 72 hr, individual monkey", "value": 112, "unit": "ng/mL"}, {"measurement": "concentration at 0.25 h", "setting": "50 mg/monkey, Plasma Concentration, PG/glycerin/Vitamin ETPGS/ethanol formulation, 0.25 hr, individual monkey", "value": 78.4, "unit": "ng/mL"}, {"measurement": "concentration at 0.5 h", "setting": "50 mg/monkey, Plasma Concentration, PG/glycerin/Vitamin ETPGS/ethanol formulation, 0.50 hr, AVG", "value": 246, "unit": "ng/mL"}, {"measurement": "concentration at 1 h", "setting": "50 mg/monkey, Plasma Concentration, PG/glycerin/Vitamin ETPGS/ethanol formulation, 1.0 hr, AVG", "value": 36900, "unit": "ng/mL"}, {"measurement": "concentration at 2 h", "setting": "[3]", "value": 60100, "unit": "ng/mL"}, {"measurement": "concentration at 2 h", "setting": "[4]", "value": 58900, "unit": "ng/mL"}, {"measurement": "concentration at 4 hr", "setting": "[3]", "value": 42500, "unit": "ng/mL"}, {"measurement": "concentration at 4 h", "setting": "[4]", "value": 34500, "unit": "ng/mL"}, {"measurement": "concentration at 6 hr", "setting": "[3]", "value": 23000, "unit": "ng/mL"}, {"measurement": "concentration at 8 hr", "setting": "50 mg/monkey, Plasma Concentration, PG/glycerin/Vitamin ETPGS/ethanol formulation, 8.0 hr, AVG", "value": 14700, "unit": "ng/mL"}, {"measurement": "concentration at 12 hr", "setting": "50 mg/monkey, Plasma Concentration, PG/glycerin/Vitamin ETPGS/ethanol formulation, 12 hr, AVG", "value": 5310, "unit": "ng/mL"}, {"measurement": "concentration at 24 hr", "setting": "50 mg/monkey, Plasma Concentration, PG/glycerin/Vitamin ETPGS/ethanol formulation, 24 hr, AVG", "value": 1340, "unit": "ng/mL"}, {"measurement": "concentration at 48 hr", "setting": "50 mg/monkey, Plasma Concentration, PG/glycerin/Vitamin ETPGS/ethanol formulation, 48 hr, AVG", "value": 149, "unit": "ng/mL"}, {"measurement": "AUC", "setting": "AUCall", "value": 1300, "unit": "µg·h/mL"}, {"measurement": "AUC", "setting": "AUCall, 200 mg/monkey, PG/glycerin/Vitamin ETPGS/ethanol formulation, individual monkey", "value": 1200, "unit": "µg·h/mL"}, {"measurement": "Cmax", "setting": "Cmax, 200 mg/monkey, PG/glycerin/Vitamin ETPGS/ethanol formulation, AVG", "value": 217000, "unit": "ng/mL"}, {"measurement": "Cmax", "setting": "Cmax, 200 mg/monkey, PG/glycerin/Vitamin ETPGS/ethanol formulation, individual monkey", "value": 202000, "unit": "ng/mL"}, {"measurement": "AUC", "setting": "pH 8", "value": 1970, "unit": "µg·h/mL"}, {"measurement": "Cmax", "setting": "pH 8", "value": 225000, "unit": "ng/mL"}, {"measurement": "half-life", "setting": "pH 8", "value": 8.3, "unit": "h"}, {"measurement": "AUC", "setting": "pH 8, AUCall", "value": 1390, "unit": "µg·h/mL"}, {"measurement": "Tmax", "setting": "pH 8, tmax", "value": 2, "unit": "h"}, {"measurement": "half-life", "setting": "t1/2, oral, 200 mg/monkey, PG/glycerin/Vitamin ETPGS/ethanol formulation, AVG", "value": 10.8, "unit": "h"}, {"measurement": "half-life", "setting": "t1/2, oral, 200 mg/monkey, PG/glycerin/Vitamin ETPGS/ethanol formulation, individual monkey", "value": 11.4, "unit": "h"}, {"measurement": "Tmax", "setting": "tmax", "value": 2, "unit": "h"}, {"measurement": "concentration at 0.25 hr", "setting": "200 mg/monkey, Plasma Concentration, PG/glycerin/Vitamin ETPGS/ethanol formulation, 0.25 hr, AVG", "value": 565, "unit": "ng/mL"}, {"measurement": "concentration at 0.5 hr", "setting": "200 mg/monkey, Plasma Concentration, PG/glycerin/Vitamin ETPGS/ethanol formulation, 0.50 hr, AVG", "value": 6020, "unit": "ng/mL"}, {"measurement": "concentration at 1 hr", "setting": "200 mg/monkey, Plasma Concentration, PG/glycerin/Vitamin ETPGS/ethanol formulation, 1.0 hr, AVG", "value": 64800, "unit": "ng/mL"}, {"measurement": "concentration at 2 hr", "setting": "[5]", "value": 217000, "unit": "ng/mL"}, {"measurement": "concentration at 2 hr", "setting": "[6]", "value": 202000, "unit": "ng/mL"}, {"measurement": "concentration at 4 hr", "setting": "[5]", "value": 152000, "unit": "ng/mL"}, {"measurement": "concentration at 4 hr", "setting": "[6]", "value": 166000, "unit": "ng/mL"}, {"measurement": "concentration at 6 hr", "setting": "[5]", "value": 77800, "unit": "ng/mL"}]}
